# Where “and” joins values, the source holds several entries; their conditions need not be identical. Equal entries are not always repeated. Inconclusive results and toxic doses are left out.
# Test system: L1210 leukemia ip in BDF1 mice, survival T/C
# Test: NCI In Vivo Anticancer Drug Screen. Data for tumor model L1210 Leukemia (intraperitoneal) in B6D2F1 (BDF1) mice
# Details: endpoint: mean survival time, higher = longer survival
# How it was run: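 Mice bearing the transplanted tumor received compound or vehicle. Survival of the treated group was divided by that of the vehicle-treated control group to give the ratio.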
# [1] = dose: 100.0 mg/kg/injection, schedule: Q01DX001 (ip), vehicle: carboxymethylcellulose (CMC)
# [2] = dose: 100.0 mg/kg/injection, schedule: Q01DX009 (ip), vehicle: saline with Tween-80
# [3] = dose: 200.0 mg/kg/injection, schedule: Q01DX001 (ip), vehicle: carboxymethylcellulose (CMC)
# [4] = dose: 200.0 mg/kg/injection, schedule: Q01DX009 (ip), vehicle: saline with Tween-80
# [5] = dose: 400.0 mg/kg/injection, schedule: Q01DX001 (ip), vehicle: carboxymethylcellulose (CMC)
# [6] = dose: 75.0 mg/kg/injection, schedule: Q01DX001 (ip), vehicle: saline
# [7] = dose: 150.0 mg/kg/injection, schedule: Q01DX001 (ip), vehicle: saline
# [8] = dose: 400.0 mg/kg/injection, schedule: Q01DX009 (ip), vehicle: saline with Tween-80
# [9] = dose: 100.0 mg/kg/injection, schedule: Q04DX002 (ip), vehicle: saline with Tween-80
# [10] = dose: 200.0 mg/kg/injection, schedule: Q04DX002 (ip), vehicle: saline with Tween-80
# [11] = dose: 100.0 mg/kg/injection, schedule: Q04DX003 (ip), vehicle: Klucel (hydroxypropylcellulose) (HPC)
# [12] = dose: 100.0 mg/kg/injection, schedule: Q01DX009 (ip), vehicle: Klucel (hydroxypropylcellulose) (HPC)
# [13] = dose: 200.0 mg/kg/injection, schedule: Q01DX009 (ip), vehicle: Klucel (hydroxypropylcellulose) (HPC)
# [14] = dose: 200.0 mg/kg/injection, schedule: Q04DX003 (ip), vehicle: Klucel (hydroxypropylcellulose) (HPC)
# [15] = dose: 400.0 mg/kg/injection, schedule: Q01DX009 (ip), vehicle: Klucel (hydroxypropylcellulose) (HPC)
# [16] = dose: 400.0 mg/kg/injection, schedule: Q04DX003 (ip), vehicle: Klucel (hydroxypropylcellulose) (HPC)
# [17] = dose: 100.0 mg/kg/injection, schedule: Q04DX003 (ip), vehicle: saline with Tween-80
# [18] = dose: 200.0 mg/kg/injection, schedule: Q04DX003 (ip), vehicle: saline with Tween-80
# [19] = dose: 400.0 mg/kg/injection, schedule: Q04DX003 (ip), vehicle: saline with Tween-80
smiles,measurement,setting,value
O=C1C(NC(=O)C2CCCCC2)=C(N2CC2)C(=O)C(NC(=O)C2CCCCC2)=C1N1CC1,T/C,"dose: 50.0 mg/kg/injection, schedule: Q01DX010 (ip), vehicle: saline",93 % of control and 101 % of control
same,T/C,"dose: 50.0 mg/kg/injection, schedule: Q01DX Z (ip), vehicle: Klucel (hydroxypropylcellulose) (HPC)",105 % of control
same,T/C,"dose: 78.0 mg/kg/injection, schedule: Q01DX Z (ip), vehicle: carboxymethylcellulose (CMC)",115 % of control
same,T/C,"dose: 100.0 mg/kg/injection, schedule: Q01DX010 (ip), vehicle: saline",101 % of control and 104 % of control
same,T/C,"dose: 100.0 mg/kg/injection, schedule: Q01DX Z (ip), vehicle: Klucel (hydroxypropylcellulose) (HPC)",109 % of control
same,T/C,"dose: 117.0 mg/kg/injection, schedule: Q01DX Z (ip), vehicle: carboxymethylcellulose (CMC)",104 % of control
same,T/C,"dose: 175.0 mg/kg/injection, schedule: Q01DX Z (ip), vehicle: carboxymethylcellulose (CMC)",119 % of control
same,T/C,"dose: 200.0 mg/kg/injection, schedule: Q01DX010 (ip), vehicle: saline",98 % of control and 115 % of control
same,T/C,"dose: 263.0 mg/kg/injection, schedule: Q01DX Z (ip), vehicle: carboxymethylcellulose (CMC)",150 % of control
same,T/C,"dose: 400.0 mg/kg/injection, schedule: Q01DX010 (ip), vehicle: saline",98 % of control and 104 % of control
same,T/C,"dose: 400.0 mg/kg/injection, schedule: Q01DX Z (ip), vehicle: Klucel (hydroxypropylcellulose) (HPC)",102 % of control
same,T/C,"dose: 440.0 mg/kg/injection, schedule: Q01DX001 (ip), vehicle: carboxymethylcellulose (CMC)",102 % of control and 119 % of control
same,T/C,"dose: 670.0 mg/kg/injection, schedule: Q01DX001 (ip), vehicle: carboxymethylcellulose (CMC)",103 % of control and 91 % of control
same,T/C,"dose: 1000.0 mg/kg/injection, schedule: Q01DX001 (ip), vehicle: carboxymethylcellulose (CMC)",101 % of control and 103 % of control
CC(C)=CCC/C(C)=C/CO,T/C,"dose: 50.0 mg/kg/injection, schedule: Q01DX009 (ip), vehicle: saline with Tween-80",92 % of control
same,T/C,[1],95 % of control
same,T/C,[2],98 % of control
same,T/C,[3],108 % of control
same,T/C,[4],98 % of control
same,T/C,[5],101 % of control
NCCSCCc1ccccc1,T/C,"dose: 25.0 mg/kg/injection, schedule: Q04DX002 (ip), vehicle: saline with Tween-80",100 % of control
same,T/C,"dose: 50.0 mg/kg/injection, schedule: Q04DX002 (ip), vehicle: saline with Tween-80",103 % of control
CCOC(=O)C1CN(C2CCCCC2)CCC1=O (configuration not stated),T/C,"dose: 18.75 mg/kg/injection, schedule: Q01DX009 (ip), vehicle: saline",93 % of control
same,T/C,"dose: 37.5 mg/kg/injection, schedule: Q01DX009 (ip), vehicle: saline",92 % of control
same,T/C,"dose: 37.5 mg/kg/injection, schedule: Q04DX003 (ip), vehicle: saline",98 % of control
same,T/C,[6],102 % of control
same,T/C,"dose: 75.0 mg/kg/injection, schedule: Q01DX009 (ip), vehicle: saline",93 % of control
same,T/C,"dose: 75.0 mg/kg/injection, schedule: Q04DX003 (ip), vehicle: saline",100 % of control
same,T/C,[7],95 % of control
same,T/C,"dose: 150.0 mg/kg/injection, schedule: Q04DX003 (ip), vehicle: saline",94 % of control
COc1ccc(NC(=O)Oc2cccc(C(F)(F)F)c2)c(Cl)c1,T/C,[2],96 % of control
same,T/C,[4],97 % of control
same,T/C,[8],94 % of control
Cc1cccc(Nc2cc(N)nc(N)n2)c1,T/C,"dose: 50.0 mg/kg/injection, schedule: Q01DX Z (ip), vehicle: methylcellulose (MC)",96 % of control
O=P(O)(Oc1cccc(Cl)c1)Oc1cccc(Cl)c1,T/C,[9],115 % of control
same,T/C,[10],104 % of control
CCN(CC)CC(=O)NCC(CC)(CCN(C)C)c1cccc2ccccc12 (configuration not stated),T/C,"dose: 100.0 mg/kg/injection, schedule: Q01DX009 (ip), vehicle: saline",105 % of control
same,T/C,"dose: 100.0 mg/kg/injection, schedule: Q04DX003 (ip), vehicle: saline",102 % of control
same,T/C,"dose: 200.0 mg/kg/injection, schedule: Q01DX009 (ip), vehicle: saline",97 % of control
same,T/C,"dose: 200.0 mg/kg/injection, schedule: Q04DX003 (ip), vehicle: saline",100 % of control
O=C(COc1ccc(Cl)c(Cl)c1)NCc1ccc[n+](Cc2ccc(S(=O)(=O)F)cc2)c1,T/C,"dose: 25.0 mg/kg/injection, schedule: Q04DX003 (ip), vehicle: Klucel (hydroxypropylcellulose) (HPC)",106 % of control
same,T/C,"dose: 50.0 mg/kg/injection, schedule: Q04DX003 (ip), vehicle: Klucel (hydroxypropylcellulose) (HPC)",101 % of control
same,T/C,[11],94 % of control and 101 % of control
O=C(O)c1ccc(NC(=S)S)cc1,T/C,"dose: 100.0 mg/kg/injection, schedule: Q04DX002 (ip), vehicle: Klucel (hydroxypropylcellulose) (HPC)",103 % of control
same,T/C,"dose: 200.0 mg/kg/injection, schedule: Q04DX002 (ip), vehicle: Klucel (hydroxypropylcellulose) (HPC)",98 % of control
same,T/C,"dose: 400.0 mg/kg/injection, schedule: Q04DX002 (ip), vehicle: Klucel (hydroxypropylcellulose) (HPC)",98 % of control
COC(=O)c1ccccc1NC(=S)NC(=O)/C=C/c1ccccc1,T/C,[12],94 % of control
same,T/C,[11],97 % of control
same,T/C,[13],103 % of control
same,T/C,[14],95 % of control
same,T/C,[15],106 % of control
same,T/C,[16],91 % of control
Clc1ccc(C2NC(c3ccc(Cl)cc3)NC(c3ccc(Cl)cc3)N2)cc1 (configuration not stated),T/C,[6],95 % of control
same,T/C,[7],95 % of control
same,T/C,"dose: 300.0 mg/kg/injection, schedule: Q01DX001 (ip), vehicle: saline",90 % of control
O=C(C(=O)c1ccc(Cl)cc1)c1ccc(Cl)cc1,T/C,"dose: 1.56 mg/kg/injection, schedule: Q01DX009 (ip), vehicle: other",106 % of control
same,T/C,"dose: 3.13 mg/kg/injection, schedule: Q01DX009 (ip), vehicle: other",95 % of control
same,T/C,"dose: 6.25 mg/kg/injection, schedule: Q01DX009 (ip), vehicle: other",97 % of control and 92 % of control
same,T/C,"dose: 25.0 mg/kg/injection, schedule: Q01DX009 (ip), vehicle: other",88 % of control
same,T/C,"dose: 50.0 mg/kg/injection, schedule: Q01DX001 (ip), vehicle: carboxymethylcellulose (CMC)",94 % of control
same,T/C,[1],94 % of control
same,T/C,[17],86 % of control
same,T/C,[3],89 % of control
same,T/C,[18],88 % of control
same,T/C,[5],92 % of control
same,T/C,[19],88 % of control
CC1=NC(C#N)=C(C#N)N=C(c2ccccc2)C1,T/C,"dose: 100.0 mg/kg/injection, schedule: Q01DX009 (ip), vehicle: gum acacia",99 % of control
same,T/C,"dose: 200.0 mg/kg/injection, schedule: Q01DX009 (ip), vehicle: gum acacia",91 % of control
CCN(CC)C(C(=O)Nc1ccccc1)C(=O)Nc1ccccc1,T/C,[17],92 % of control
same,T/C,[18],94 % of control
same,T/C,[19],90 % of control
COc1ccc(OC)c(NC(=S)Nc2ccccc2)c1,T/C,[12],98 % of control
same,T/C,[13],97 % of control
same,T/C,[15],92 % of control
O=c1[nH]c(=O)c2nc[nH]c(=O)c2[nH]1,T/C,"dose: 75.0 mg/kg/injection, schedule: Q01DX009 (ip), vehicle: Klucel (hydroxypropylcellulose) (HPC)",98 % of control
same,T/C,[11],118 % of control
same,T/C,"dose: 150.0 mg/kg/injection, schedule: Q01DX009 (ip), vehicle: Klucel (hydroxypropylcellulose) (HPC)",97 % of control
same,T/C,[14],94 % of control
same,T/C,[16],100 % of control
NC(=S)N/N=C/c1ccc(C2CCNCC2)cc1,T/C,"dose: 15.0 mg/kg/injection, schedule: Q01DX Z (ip), vehicle: methylcellulose (MC)",102 % of control
same,T/C,"dose: 30.0 mg/kg/injection, schedule: Q01DX Z (ip), vehicle: methylcellulose (MC)",92 % of control
same,T/C,"dose: 60.0 mg/kg/injection, schedule: Q01DX Z (ip), vehicle: methylcellulose (MC)",104 % of control
same,T/C,"dose: 120.0 mg/kg/injection, schedule: Q01DX Z (ip), vehicle: methylcellulose (MC)",104 % of control
O=C(N/N=C\c1cc(Br)cc(Br)c1O)N/N=C/c1cc(Br)cc(Br)c1O,T/C,[9],108 % of control
same,T/C,[10],95 % of control
same,T/C,"dose: 400.0 mg/kg/injection, schedule: Q04DX002 (ip), vehicle: saline with Tween-80",92 % of control
O=C(NC(Cc1ccccc1)C(=O)O)c1ccccc1 (configuration not stated),T/C,[2],91 % of control
same,T/C,[17],94 % of control and 92 % of control
same,T/C,[4],95 % of control
same,T/C,[18],96 % of control and 95 % of control
same,T/C,[8],90 % of control
same,T/C,[19],97 % of control and 90 % of control

# Reference: PubChem BioAssay AID248 (DTP/NCI, 2004)
